What was measured:
[1] = weaned piglets, 25.5-510 mg thymol/kg feed
Method: […] piglets (Duroc—Large White) weaned at 28 days of age and with a body weight (BW) of 7.71±1.00 kg were divided into 40 pens (4 piglets per pen, castrated males and females were placed in separate pens) and randomly assigned to one of the following experimental groups (n=32): control group fed with the basal diet (T1), a group fed with the basal diet supplemented with 25.5 mg of thymol/kg feed (T2), a group fed with the basal diet supplemented with 51 mg of thymol/kg feed (T3), a group fed with the basal diet supplemented with 153 mg of thymol/kg feed (T4) and a group fed with the basal diet supplemented with 510 mg of thymol/kg feed (T5). Thymol was provided in a form embedded (microencapsulated) in a lipid matrix (Vetagro SpA, Reggio Emilia, Italy). Concentrations of thymol were selected to meet or exceed the upper limit of inclusion in food and feed established by the European Agency for the Evaluation of Medicinal Products and for the feed. The basal feed was formulated to meet or exceed the nutritional requirements of pigs according to the National Research Council, and feed and water were provided ad libitum (the composition of the basal diet is reported in Table 1). The health condition of the animals was monitored during the study. The piglets were individually weighed at the beginning (day 0) and end (day 14) of the study. Growth parameters, such as FI, ADFI, ADG and F:G (FI—feed intake; ADFI—Average daily feed intake; ADG—Average daily gain; F:G—Feed to gain ratio), were measured in the animals housed in each pen on day 14 (d14) of the experiment.
Animals were blocked in a completely randomised design and data were analysed using GraphPad Prism® software (GraphPad Software, Inc., La Jolla, Calif., USA). Data were analysed using one-way ANOVA followed by Tukey's post hoc test to detect differences among treatments. The pen was the experimental unit for growth performance, whereas the pig was the experimental unit for gene expression. Differences were considered significant at P<0.05, and trends were defined at 0.05≤P<0.1.

CB2 mRNA = test: Gene expression (real-time PCR) of cannabinoid receptor 2 in duodenal and ileal mucosa at d14; type: in vivo, pigs
Method: At the end of the study, 8 animals from each treatment group were sacrificed, samples were collected, and analysed. Duodenal and ileal mucosal scrapings were collected. The duodenum and ileum were longitudinally cut to expose the mucosa, washed with a phosphate-buffered saline solution to remove mucus and digesta, then scraped gently, packed, immediately frozen in liquid nitrogen and stored at -80° C. until the analyses of gene and protein expression. Gene expression was analysed using the method reported by […] et al. [The Journal of Nutrition. 2011; 141:2139-45]. Duodenal and ileal scraping samples obtained on d14 of the study were disrupted by grinding them in liquid nitrogen with mortar and pestle, and then homogenised using a TissueLyser (Qiagen, Hilden, Germany). Total RNA was isolated using a NucleoSpin® RNA Kit (Macherey-Nagel, Düren, Germany) according to the manufacturer's instructions. Genomic DNA contamination was removed by treating the samples with the deoxyribonuclease supplied in the extraction kit ([…], RNase-free; Macherey-Nagel). The RNA yield and quality were determined spectrophotometrically by measuring the absorbance at 260 and 280 nm (A260 and A280 nm, respectively) (Microvolume Mode with SmartPath® Technology, Denovix). One microgram of RNA was reverse transcribed using the iScript cDNA Synthesis Kit (Bio-Rad Laboratories Inc., Hercules, Calif., USA) according to the manufacturer's instructions. Real-time PCR was performed using an iCycler Thermal Cycler system and SybrGreen Supermix (Bio-Rad Laboratories Inc.). The thermocycling protocol provided for an initial denaturation step for 1 min and 30 seconds at 95° C., followed by 40 cycles of denaturation at 95° C. for 15 seconds and 30 seconds of annealing and extension at 60° C. After amplification, a melting curve analysis was performed for all the samples, with slow heating from 55° C. to 95° C. at a rate of 0.5° C./s to validate the absence of non-specific products. Gene expression was normalised to a housekeeping gene (HK) encoding portions of porcine ribosomal subunit 60 S, in particular ribosomal protein […] (RPL35). The average threshold cycle (CT) was determined for each gene of interest, and the geometric average was calculated for HK by assuming that CT is the number of cycles required to reach a fixed arbitrary threshold. Delta CT was calculated, then a modification of the 2^-ΔΔCT method [Livak K J, et al., Methods 2001; 25:402-8] was used to analyse the relative expression (fold changes), which was calculated relative to the control group. The sequences, accession numbers in the EMBL database/GenBank, expected product lengths and references for porcine primers are reported in Table 2. […]

FAAH mRNA = test: Gene expression (real-time PCR) of ECS enzyme FAAH in duodenal and ileal mucosa at d14; type: in vivo, pigs
Method: (§1) At the end of the study, 8 animals from each treatment group were sacrificed, samples were collected, and analysed. Duodenal and ileal mucosal scrapings were collected. The duodenum and ileum were longitudinally cut to expose the mucosa, washed with a phosphate-buffered saline solution to remove mucus and digesta, then scraped gently, packed, immediately frozen in liquid nitrogen and stored at -80° C. until the analyses of gene and protein expression. Gene expression was analysed using the method reported by […] et al. [The Journal of Nutrition. 2011; 141:2139-45]. […] The RNA yield and quality were determined spectrophotometrically by measuring the absorbance at 260 and 280 nm (A260 and A280 nm, respectively) (Microvolume Mode with SmartPath® Technology, Denovix). […] The average threshold cycle (CT) was determined for each gene of interest, and the geometric average was calculated for HK by assuming that CT is the number of cycles required to reach a fixed arbitrary threshold. Delta CT was calculated, then a modification of the 2^-ΔΔCT method [Livak K J, et al., Methods 2001; 25:402-8] was used to analyse the relative expression (fold changes), which was calculated relative to the control group. […]

CB1 mRNA = test: Gene expression (real-time PCR) of cannabinoid receptor 1 in duodenal and ileal mucosa at d14; type: in vivo, pigs
Method: (§2) At the end of the study, 8 animals from each treatment group were sacrificed, samples were collected, and analysed. Duodenal and ileal mucosal scrapings were collected. The duodenum and ileum were longitudinally cut to expose the mucosa, washed with a phosphate-buffered saline solution to remove mucus and digesta, then scraped gently, packed, immediately frozen in liquid nitrogen and stored at -80° C. until the analyses of gene and protein expression. Gene expression was analysed using the method reported by […] et al. [The Journal of Nutrition. 2011; 141:2139-45]. Duodenal and ileal scraping samples obtained on d14 of the study were disrupted by grinding them in liquid nitrogen with mortar and pestle, and then homogenised using a TissueLyser (Qiagen, Hilden, Germany). Total RNA was isolated using a NucleoSpin® RNA Kit (Macherey-Nagel, Düren, Germany) according to the manufacturer's instructions. Genomic DNA contamination was removed by treating the samples with the deoxyribonuclease supplied in the extraction kit ([…], RNase-free; Macherey-Nagel). The RNA yield and quality were determined spectrophotometrically by measuring the absorbance at 260 and 280 nm (A260 and A280 nm, respectively) (Microvolume Mode with SmartPath® Technology, Denovix). One microgram of RNA was reverse transcribed using the iScript cDNA Synthesis Kit (Bio-Rad Laboratories Inc., Hercules, Calif., USA) according to the manufacturer's instructions. Real-time PCR was performed using an iCycler Thermal Cycler system and SybrGreen Supermix (Bio-Rad Laboratories Inc.). […] The average threshold cycle (CT) was determined for each gene of interest, and the geometric average was calculated for HK by assuming that CT is the number of cycles required to reach a fixed arbitrary threshold. Delta CT was calculated, then a modification of the 2^-ΔΔCT method [Livak K J, et al., Methods 2001; 25:402-8] was used to analyse the relative expression (fold changes), which was calculated relative to the control group. […]

OR1G1 mRNA = test: Gene expression (real-time PCR) of gut chemosensing marker OR1G1 in duodenal and ileal mucosa at d14; type: in vivo, pigs
Method: as §1

TRPV1 mRNA = test: Gene expression (real-time PCR) of gut chemosensing marker TRPV1 in duodenal and ileal mucosa at d14; type: in vivo, pigs; details: for TRPV1 mRNA levels compared to the control group: ileum, d14, P=0.0183
Method: as §2

Cc1ccc(C(C)C)c(O)c1 [thymol]
health conditions ([1]; 14 days): good health conditions
mortality ([1]; 14 days): no mortality
differences in average daily feed intake (ADFI) among the treatment groups ([1]; day 14, data not shown): not observed
differences in average daily gain (ADG) among the treatment groups ([1]; day 14, data not shown): not observed
differences in body weight (BW) among the treatment groups ([1]; day 14, data not shown): not observed
differences in feed intake (FI) among the treatment groups ([1]; day 14, data not shown): not observed
differences in feed to gain ratio (F:G) among the treatment groups ([1]; day 14, data not shown): not observed
levels of the CB2 mRNA compared to the control group (CB2 mRNA; duodenum, group T4 (153 mg thymol/kg feed), d14, P=0.004): Significantly increased
levels of the CB2 mRNA compared to the control group (CB2 mRNA; duodenum, group T5 (510 mg thymol/kg feed), d14, P=0.004): Significantly increased
levels of the CB2 mRNA compared to the control group (CB2 mRNA; ileum, group T4 (153 mg thymol/kg feed), d14, P=0.0162): Significantly increased
levels of the CB2 mRNA compared to the control group (CB2 mRNA; ileum, group T5 (510 mg thymol/kg feed), d14, P=0.0162): Significantly increased
differences in FAAH mRNA levels (FAAH mRNA; duodenum, all thymol groups (25.5-510 mg/kg feed), d14): not observed
FAAH mRNA levels compared to the control group (FAAH mRNA; ileum, group T4 (153 mg thymol/kg feed), d14, P=0.0028): significantly increased
level of the CB1 mRNA compared to the control group (CB1 mRNA; duodenum, group T5 (510 mg thymol/kg feed), d14, P=0.0209): significantly increased
level of the CB1 mRNA compared to the control group (CB1 mRNA; ileum, group T4 (153 mg thymol/kg feed), d14, P=0.0054): significantly increased
level of the CB1 mRNA compared to the control group (CB1 mRNA; ileum, group T5 (510 mg thymol/kg feed), d14, P=0.0054): significantly increased
OR1G1 mRNA expression compared to the control group (OR1G1 mRNA; duodenum, 510 mg thymol/kg feed (T5), d14, P=0.0210): higher levels
OR1G1 mRNA expression compared to the control group (OR1G1 mRNA; ileum, 153 mg thymol/kg feed (T4), d14, P=0.0235): higher levels
TRPV1 mRNA level (TRPV1 mRNA; duodenum, 510 mg thymol/kg of feed, d14, P=0.0382): increased
TRPV1 mRNA levels compared to the control group (TRPV1 mRNA; group T4 (153 mg thymol/kg feed)): increased
TRPV1 mRNA levels compared to the control group (TRPV1 mRNA; group T5 (510 mg thymol/kg feed)): increased

Source: patent publication US20230233482A1, “COMPOSITIONS COMPRISING THYMOL FOR USE IN THE TREATMENT OF INFLAMMATORY OR FUNCTIONAL BOWEL DISORDERS BY MODULATING THE ENDOCANNABINOID SYSTEM” (priority 2020, published 2023)
